Measurements as given in article PMC8691750, “Euphorbia Factor L2 ameliorates the Progression of K/BxN Serum-Induced Arthritis by Blocking TLR7 Mediated IRAK4/IKKβ/IRF5 and NF-kB Signaling Pathways” (Frontiers in Pharmacology, 2021).

Assays:
[1] = system: TLR7 (R837) / TLR3 (poly:IC) induced cytokine production in BMDMs; test: ELISA of IL-1β and IL-6 in supernatant of R837 and/or poly:IC stimulated BMDMs; assay type: cell-based, C57BL/6 mice
Protocol: (§1) RAW264.7 cells, a mouse macrophage cell line, were cultured in DMEM medium containing 10% fetal bovine serum (FBS), 1% penicillin-streptomycin and maintained at 37 °C in 5% CO2 humidified air. Bone marrow-derived macrophages (BMDMs) generation was performed as following description. In brief, bone marrow cells were harvested from tibias and femurs of C57BL/6 mice and differentiated for 7 days in DMEM medium supplemented with 10% FBS, 1% penicillin-streptomycin and 50 ng/ml M-CSF. For human peripheral blood mononuclear cells (PBMCs) preparation, 5 ml peripheral venous blood was obtained from healthy donors in West China Hospital. PBMCs were isolated with Human Lymphocyte Separation Medium (LTS1077, Tian Jing, China) according to the manufacturer’s instructions. The experimental protocols were performed according to the approved guidelines established by the Institutional Human Research Subject Protection Committee of the Ethics Committee of West China Hospital, Sichuan University, China.
(§2) RAW264.7 cells (5×10^5/ml), BMDMs (5×10^5/ml) and PBMCs (2×10^6/ml) were plated in 96-well plates and incubated overnight. […] For the anti-inflammatory molecular mechanism study, RAW264.7 cells (5×10^5/ml) were plated in 96-well plates and stimulated with R837 (20 μg/ml) with or without the addition of NF-κB inhibitor (JSH-23, […]) for 24 h. After 24 h, the culture supernatant was collected for cytokines measurements.
(§3) IL-4, IL-17A and TNF-α in sera from different group mice were measured using CBA Multiplex kit (BD, United States). The concentrations of IL-1β and IL-6 in serum or supernatant were detected by ELISA Kit (MULTI SCIENCES, China) according to the manufacturers’ instructions.

[2] = system: TLR7 (R837) / TLR3 (poly:IC) induced cytokine production in RAW264.7 cells; test: ELISA of IL-1β and IL-6 in supernatant of R837 and/or poly:IC stimulated RAW264.7 cells; assay type: cell-based, mouse
Protocol: as §2, §3

[3] = system: TLR7 (R837) induced cytokine production in PBMCs; test: ELISA of IL-1β and IL-6 in supernatant of R837 stimulated PBMCs; assay type: cell-based, human; conditions: PBMCs; R837 alone
Protocol: as §1
RAW264.7 cells (5×10^5/ml), BMDMs (5×10^5/ml) and PBMCs (2×10^6/ml) were plated in 96-well plates and incubated overnight. […]
as §3

[4] = system: TLR7-mediated IRAK4/IKKβ/IRF5 signaling pathway; test: Western blot, IRAK4/IKKβ/IRF5 in R837-stimulated RAW264.7 cells; assay type: cell-based, mouse; conditions: RAW264.7 cells; R837 alone
Protocol: (§4) RAW264.7 cells (2×10^6 cells/well) were plated into 6-well plates and then incubated at 37°C in 5% CO2 for 24 h. After incubated with various concentrations of EFL2 (1, 5 and 10 µM) for 1 h, cells were then stimulated by R837 (20 μg/ml) for 30 min. Cell lysates were prepared by direct lysis in 20 µL IP buffer (Beyotime Biotechnology, Shanghai, China). After obtaining the whole cell extracts, the cytosolic and nuclear were seperated using Nuclear and Cytoplasmic Protein Extraction Kit (Beyotime Biotechnology, Shanghai, China). BCA Protein Assay Kit (Beyotime Biotechnology, Nantong, China) was applied to determine the protein concentrations. The bands corresponding to p- IKKα/β, IKKα/β, p-IκBα, IκBα, p-p65, p65, p-IRAK4, IRAK4, p-IKKβ, IKKβ, p-IRF5, IRF5, β-actin and Lamin B were visualized using a Western Blot Detection Chemiluminescence Kit (Merck). Protein extracted from the total lysates/cytoplasm and nucleus was quantified in relation to β-actin and Lamin B bands, respectively.
(§5) The antibodies used in the experiments were as follows: rabbit anti-mouse IKKα/β polyclonal antibody (1:1,000, Abways, China), rabbit anti-mouse IκBα polyclonal antibody (1:1,000, Abgent, China), rabbit anti-mouse p65 polyclonal antibody (1:1,000, Abgent, China), rabbit anti-mouse phosphorylated IKKα (Ser176)/β (Ser177) (1:1,000, Abways, China), rabbit anti-mouse phosphorylated IκBα (1:1,000, Abcam, United States), rabbit anti-mouse phosphorylated p65 (1:1,000, Abcam, United States), rabbit anti-mouse IRAK4 polyclonal antibody (1:1,000, Proteintech, United States), rabbit anti-mouse phosphorylated IRAK4 (Thr345/Ser346) (1:1,000, Affinity, United States), rabbit anti-mouse IKKβ polyclonal antibody (1:1,000, Abbkine, United States), rabbit anti-mouse phosphorylated IKKβ (Ser177) (1:1,000, Abways, China), rabbit anti-mouse IRF5 polyclonal antibody (1:1,000, Immunoway, United States), rabbit anti-mouse phosphorylated IRF5 (Ser437) (1:1,000, Affinity, United States), anti-mouse actin monoclonal antibody (1:20,000, Transgen, China) and rabbit anti-mouse LaminB monoclonal antibody (1:5,000, Abways, China).

[5] = system: P65 and IRF5 translocation; test: Confocal microscopy of p65 and IRF5 translocation in RAW264.7 cells; assay type: cell-based, mouse; conditions: R837 alone, immunofluorescence staining
Protocol: P65 and IRF5 translocation activity was analyzed by confocal microscopy. Briefly, 1×10^5 RAW264.7 cells were plated on coverslips overnight. Cells were pretreated with various concentrations of EFL2 (1, 5 and 10 µM) for 1 h and then stimulated by R837 (20 μg/ml) for 30 min. After washed with ice-cold PBS, RAW264.7 cells were fixed with 4% paraformaldehyde for 20 min at room temperature. The coverslips were washed with PBS with 0.2% tween 20 and blocked with 5% goat serum. Primary antibodies were applied to coverslips overnight at 4°C, followed by secondary antibodies incubation for 1 h at room temperature. After three times wash, coverslips were mounted with Fluoroshield™ with DAPI (Solarbio, China) and images were acquired by confocal microscopy (ZEISS, Germany). Primary antibody: rabbit anti-mouse IRF5 (1:800, Abcam, China); rabbit anti-mouse p65 (1:1,000, Abcam, China). Secondary antibody: Alexa eFluor®488 conjugated goat anti-rabbit IgG (1:2000, Thermo Fisher Scientific, Carlsbad, United States).

[6] = system: TLR7-mediated NF-κB signaling pathway (IKKα/β, IκBα, p65); test: Western blot, NF-κB pathway in R837-stimulated RAW264.7 cells; assay type: cell-based, mouse; conditions: RAW264.7 cells; R837 alone
Protocol: as §4, §5

[7] = system: TNF-α, IL-4, IL-17A, IL-1β and IL-6 in serum; test: Cytokines in sera of STA mice (CBA Multiplex kit, ELISA); assay type: in vivo, C57BL/6 mice; conditions: STA mice; DEX 30 mg/kg gavage
Protocol: (§6) K/BxN serum was collected from K/BxN mice at 8 weeks of age, pooled, aliquoted and stored at -20 °C. K/BxN serum-transfer arthritis (STA) model was induced by intraperitoneal (i.p.) application of 150 μL of serum at day 0. Clinical score for arthritis severity was assessed using a 0–4 point scale for each paw at various time points (0–16 total score) as described previously ([Luo et al., 2011]). 8-week old male C57BL/6 mice were purchased from Dashuo Animal Center (China, Chengdu), maintained at 25°C, and exposed to 12-h light and dark cycles. Mice were fed with standard laboratory chow and water with 1 week of acclimatization. Naive mice were used as the control group. Except the control mice, all mice were i. p. injected with 150 μL of serum, then randomly divided into the following groups and treated with different compounds daily for the consecutive 8 days: 1) STA group; 2) Solvent control group, mice were gavaged with the solvent; 3) Dexamethasone (DEX) group, mice were gavaged with 30 mg/kg DEX; 4) EFL2 group 1, mice were gavaged with 40 mg/kg EFL2; 5) EFL2 group 2, mice were intraperitoneally injected with 15 mg/kg EFL2; 6) EFL2 group 3, […] were intraperitoneally injected with 40 mg/kg EFL2. […] All animal experiments were conducted in accordance with ethical regulation for animal care and use in China.
as §3

[8] = system: synovial hyperplasia and articular inflammatory cells infiltration in knee joints; test: Histological assessment (H&E) of knee joints of STA mice; assay type: in vivo, C57BL/6 mice; conditions: DEX 30 mg/kg gavage
Protocol: as §6
The left knee joints were removed on day 13 post STA and fixed in 4% formaldehyde overnight at 4°C. The tissues were decalcified in EDTA and sectioned after embedding in paraffin. 5 μm sections were deparaffinized with xylene, re-hydrated with 100, 95 and 80% ethanol and then stained with hematoxylin and eosin (H&E). Histopathological changes in the knee joints were measured using a semiquantitative scoring system (0–4 scale) to assess synovial hyperplasia and articular inflammatory cells infiltration as previously described ([Yamanishi et al., 2002]).

[9] = system: K/BxN serum-transfer arthritis (STA) model; test: K/BxN serum-transfer arthritis (STA) model, arthritic index / clinical score; assay type: in vivo, C57BL/6 mice; conditions: STA mice; DEX 30 mg/kg gavage daily
Protocol: as §6

[10] = RAW 264.7 cells, JSH-23 10 μM, 24 h

**Q.** poly (I:C) [reference compound] was tested. Which “IL-1β and IL-6 production” value ([1]; BMDMs, poly (I:C) alone (1 μg/ml)) did it give?
**A.** The value was “did not affect”.

**Q.** And the “IL-1β and IL-6 production” value ([1]; R837-stimulated BMDMs, addition of poly (I:C))?
**A.** The value was “did enhance”.

**Q.** What about the “IL-1β and IL-6 production” value ([2]; R837-stimulated RAW264.7 cells, addition of poly (I:C)) of the same compound?
**A.** Its value is “did enhance”.

**Q.** What about the “IL-1β and IL-6 secretion” value ([2]; RAW264.7 cells, poly (I:C) alone (1 μg/ml)) of the same compound?
**A.** Its value is “significantly increased”.

**Q.** Which results are given for `Cc1ccc(NCCCc2ccccc2)c(N)c1` [JSH-23]?
**A.** R837-induced IL-1β production [2, 10]: to a large extent, blocked; R837-induced IL-6 secretion [2, 10]: only partially reduced

**Q.** What does the source list for `CC(C)Cn1cnc2c(N)nc3ccccc3c21` [R837, imiquimod, reference compound]?
**A.** IL-1β and IL-6 release in the supernatant [3]: robustly induced; phosphorylation of IRAK4 and IKKβ [4]: rapidly triggered; IL-1β and IL-6 release in the supernatant ([1]; BMDMs, R837 alone (20 μg/ml)): robustly induced; IRF5 translocation from cytoplasm to nucleus [5]: dramatically induced; IL-1β and IL-6 release in the supernatant ([2]; RAW264.7 cells, R837 alone (20 μg/ml)): robustly induced; phosphorylation of IKKα/β and IκB-α [6]: rapidly occurs

**Q.** With `C[C@@H]1C[C@H]2[C@@H]3CCC4=CC(=O)C=C[C@]4(C)[C@@]3(F)[C@@H](O)C[C@]2(C)[C@@]1(O)C(=O)CO` [DEX, Dexamethasone, reference compound] as the compound, how does the “IL-1β level in sera” value [7] read?
**A.** Its value is “significantly reduced”.

**Q.** And the “IL-6 level in sera” value [7]?
**A.** The value was “significantly reduced”.

**Q.** What about the “inflammatory status and inflamed synovium in joints” value [8] of the same compound?
**A.** Its value is “significantly inhibited”.

**Q.** And the arthritis clinical scores [9]?
**A.** The arthritis clinical scores was “significantly lowered”.
